The source of these data is ChEMBL document CHEMBL1133915, “Design and synthesis of novel antibacterial agents with inhibitory activity against DNA polymerase III” (Bioorg Med Chem Lett, 2001).

One experiment relates to Bacillus subtilis. In words: Tested for in vitro anti bacterial activity against Bacillus subtilis ATCC- 6633. The format is functional.
The nature of experiment [1]: Tested for in vitro antibacterial activity against DNA polymerase III. Set-up: species or system Staphylococcus aureus.
The test system of experiment [2] is Enterococcus faecium. In words: Tested for in vitro anti bacterial activity against Enterococcus faecium RLAI (ampicillin and imipenem resistant), growth unaffected at highest level. The format is functional.
The subject of experiment [3] is Staphylococcus aureus. Description: Tested for in vitro anti bacterial activity against Staphylococcus aureus MB2985 […]. The experiment is classed as functional.
In experiment [4] the test system is Streptococcus pneumoniae. In words: Tested for in vitro anti bacterial activity against Streptococcus pneumoniae CL5350 and growth affected but tested at highest level of inhibition. The experiment is classed as functional.
Experiment [5] deals with Enterococcus faecium. Description: Tested for in vitro anti bacterial activity against Enterococcus faecium RLAI (ampicillin and imipenem resistant). The format is functional.
Experiment [6] deals with Streptococcus pneumoniae. In words: Tested for in vitro anti bacterial activity against Streptococcus pneumoniae CL5350. The experiment is classed as functional.
Experiment [7] has as its system Staphylococcus aureus. In words: In vitro percent inhibition against Pol III of Staphylococcus aureus at a concentration of 500 uM.
A short description of experiment [8]: Tested for in vitro antibacterial activity against DNA polymerase III of Staphylococcus aureus.

Structures are written as SMILES. ≈ marks a conversion by molar mass, not a printed value.

What is called MIC is the smallest concentration in the dilution series that meets the test's criterion for growth inhibition. A lower MIC goes with greater potency. Broadly, the IC50 is the concentration at which inhibition is half-maximal. Low values mean greater potency in that assay, high ones weaker potency in that assay. As for `Cc1ccc(Nc2cc(Cl)nc(N)n2)cc1C`, the MIC is 6 µg/mL (≈ 24.1 µM) in the experiment with Bacillus subtilis, > 25 µg/mL against Enterococcus faecium [2], > 25 µg/mL against Staphylococcus aureus [3] and > 25 µg/mL with Streptococcus pneumoniae [4]. This compound registered an IC50 in [1] of 115 µM.
With `Cc1ccc(Nc2cc(Cl)nc(N)n2)cc1Cl`, the MIC with Bacillus subtilis is 13 µg/mL (≈ 48.3 µM); in the experiment with Enterococcus faecium [5], 27 µg/mL (≈ 100 µM); in the experiment with Staphylococcus aureus [3], 27 µg/mL (≈ 100 µM); against Streptococcus pneumoniae [6] it was 27 µg/mL (≈ 100 µM). Moreover, in [1], the IC50 was 126 µM.
The term inhibition denotes the percentage by which the read-out fell short of the control. As to `CCc1cc(Nc2cc(Oc3ccc(F)cc3)nc(N)n2)ccc1C`, in the experiment with Staphylococcus aureus [7], the inhibition is 33%.
The compound `Cc1ccc(Nc2cc(Sc3ccccc3)nc(N)n2)cc1I` registered an inhibition with Staphylococcus aureus [7] of 2%.
In turn, `CCc1cc(Nc2cc(Oc3cccc(C)c3)nc(N)n2)ccc1C` showed an IC50 in experiment [8] of 54 µM. For the same compound, the inhibition in the experiment on Staphylococcus aureus [7] turned out to be 88%.
Take `Cc1ccc(Nc2cc(Cl)nc(N)n2)cc1I`: the minimal inhibitory concentration (MIC) in the experiment on Bacillus subtilis is 5 µg/mL (≈ 13.9 µM); in the experiment with Enterococcus faecium [5], 36 µg/mL (≈ 99.8 µM); against Staphylococcus aureus [3] it was > 36 µg/mL; against Streptococcus pneumoniae [6], 18 µg/mL (≈ 49.9 µM). The half-inhibitory concentration (IC50) in [1] amounted to 51 µM.
In turn, `Cc1ccc(Nc2cc(N(C)C)nc(N)n2)cc1C` registered an inhibition in the experiment on Staphylococcus aureus [7] of 27%.
On to `Nc1nc(Cl)cc(Nc2ccc(Cl)c(Cl)c2)n1`, for which the MIC in the experiment on Bacillus subtilis is 7 µg/mL (≈ 24.2 µM); in the experiment with Enterococcus faecium [5] it was 29 µg/mL (≈ 100 µM); in the experiment on Staphylococcus aureus [3], 29 µg/mL (≈ 100 µM); against Streptococcus pneumoniae [4] it was > 29 µg/mL. In experiment [1], this compound gave an IC50 of 98 µM.
`Nc1nc(Cl)cc(Nc2ccc3c(c2)CCC3)n1`: the MIC against Bacillus subtilis was 3 µg/mL (≈ 11.5 µM); in the experiment with Enterococcus faecium [2], > 26 µg/mL; against Staphylococcus aureus [3], > 26 µg/mL; against Streptococcus pneumoniae [4], > 26 µg/mL. The same compound had a half-maximal inhibitory concentration (IC50) in experiment [1] of 119 µM.
The compound `Cc1cc(Nc2ccc(C)c(I)c2)nc(N)n1` had an inhibition in the experiment with Staphylococcus aureus [7] of 21%.
As to `CCc1cc(Nc2cc(Oc3ccc(Br)cc3)nc(N)n2)ccc1C`, in experiment [8], the IC50 amounted to 10 µM. This compound also displayed an inhibition in the experiment with Staphylococcus aureus [7] of 97%.
In the experiment with Staphylococcus aureus [7], `CCc1cc(Nc2cc(Oc3ccc(Cl)cc3)nc(N)n2)ccc1C` came in with an inhibition of 13%.
The compound `Cc1ccc(Nc2cc(S)nc(N)n2)cc1I` gave an inhibition in the experiment on Staphylococcus aureus [7] of 54%.
In the experiment with Staphylococcus aureus [7], `CSc1cc(Nc2ccc(C)c(I)c2)nc(N)n1` had an inhibition of 20%.
For `CC(C)(C)c1cccc(Nc2cc(Cl)nc(N)n2)c1`, the MIC against Bacillus subtilis came to 7 µg/mL (≈ 25.3 µM); in the experiment with Enterococcus faecium [5], 14 µg/mL (≈ 50.6 µM); against Staphylococcus aureus [3], 7 µg/mL (≈ 25.3 µM); in the experiment with Streptococcus pneumoniae [6], 14 µg/mL (≈ 50.6 µM). This compound also displayed an IC50 in [1] of 89 µM.
On to `CCc1cc(Nc2cc(Cl)nc(N)n2)ccc1C`, for which the MIC was 3 µg/mL (≈ 11.4 µM) with Bacillus subtilis, 13 µg/mL (≈ 49.5 µM) in the experiment on Enterococcus faecium [5], > 26 µg/mL in the experiment on Staphylococcus aureus [3] and 26 µg/mL (≈ 99 µM) in the experiment on Streptococcus pneumoniae [6]. The IC50 in experiment [1] worked out at 53 µM.
Consider `Cc1ccc(Nc2cc(Cl)nc(N)n2)cc1Br`, for which the results for the MIC against Bacillus subtilis, in the experiment on Enterococcus faecium [5] and in the experiment with Streptococcus pneumoniae [6] were 8 µg/mL (≈ 25.5 µM), 31 µg/mL (≈ 98.9 µM) and 31 µg/mL (≈ 98.9 µM), respectively. The IC50 in experiment [1] came out at 94 µM.
